# Reference: patent US7531195B2, “Schisandrin B preparation” (priority 2005, dated 2009)
# Marks after values point to notes of the source that are not given here.
# Assays:
# Hsp25 = Hsp25 expression in H9c2 cells (Western blot); type: cell-based, rat; details: 6.25 μM
# Method: H9c2 cells, a permanent cell line derived from cardiac myoblasts of rat embryo, have early been characterized as a suitable model of myocardial cells [Hescheler et al. 1991]. H9c2 cells were cultured as monolayers in Dulbecco's modified Eagle's medium (GIBCO BRL) supplemented with 10% (v/v) fetal bovine serum. The medium contained glucose (4.5 g/L) and glutamine (4.5 mM), supplemented with NaHCO3 (17 mM), penicillin (100 IU/ml), and streptomycin (100 μg/ml). Cells were grown under an atmosphere of 5% CO2 in air at 37° C. The medium was replaced by fresh medium every 2 or 3 days. A stock of cells was grown in a 75 cm culture flask and split before confluence at a subcultivation ratio of 1:10. Cells used for experiments were seeded at a density of 3.75×10^4 cells/well on a 12-well culture plate, and the cells were grown for 24 h to about 80% confluence prior to drug treatment.
# Cultured H9c2 cells were treated with (−) Schisandrin B, (+) Schisandrin B or (±) Schisandrin B (dissolved in DMSO) at 6.25 μM (0.2% DMSO final concentration) for increasing periods of time. Control cells were given the vehicle (i.e. DMSO) only.
# Immediately following the drug treatment, the cells were washed twice with 0.5 ml cold PBS and treated with 100 μl lysis buffer containing 20 mM Tris HCl, 3 mM EGTA, 1% Triton X-100, 10% glycerol and 2 mM dithiothreitol, pH 7.5, with freshly added protease inhibitors (1 mM phenylmethylsulfonyl fluoride, 0.1 mM benzamide, 5 μg/ml leupeptin, 5 μg aproptinin and 5 μg/ml pepstain A). The mixture was incubated at 4° C. for 15 min with constant shaking. Then the cells were scraped off from the plate, and the extract was transferred to a microcentrifuge tube for centrifugation at 2,400 g for 3 min at 4° C. The resultant supernatant was used for Hsp analysis. Hsp25 and Hsp70 levels was estimated by Western blot analysis using specific antibodies (anti-Hsp25, catalog #SPA-801; anti-Hsp70, catalog #SPA-812) from StressGen (Vancouver, BC, Canada) following SDS-PAGE analysis cell lysates, using a separating gel of 10% acrylamide as described in Ip et. al. [2001]. Hsp25/27 and Hsp70 (human recombinant proteins from StressGen) and actin (bovine muscle from Sigma) were used as markers for reference. […] All immuno-blots were analyzed by densitometry, and the amounts (arbitrary units) of Hsp were normalized with reference to actin levels (arbitrary units) in the sample.
# [1] = test system: Isolated-Perfused Rat Heart; experiment: Myocardial ischemia-reperfusion injury (LDH leakage), isolated-perfused heart of young rats; type: in vivo; details: 35 days
# Method: Male/Female adult Sprague-Dawley rats (˜10 weeks old) were maintained under a 12-h dark/light cycle at about 22° C. and allowed food and water ad libitum. Animals were randomly divided into groups, with at least 5 animals in each. In the pretreatment groups, rats were treated intragastrically with (−) Schisandrin B at a daily dose of 1 or 10 mg/kg for 35 days. Control animals received oil only (10 ml/kg). Twenty-four hours following the last dosing, hearts were isolated from control or drug-pretreated rats and then subjected to Langendorff perfusion as described below.
# The heart was excised quickly and immediately immersed in ice-cold and heparinized (50 unit/ml) saline. The aorta was cannulated and then transferred to a warm and moistured chamber of the perfusion apparatus. The heart was retrogradely perfused according to Langendorff method as described (Yim and Ko 1999).
# Coronary effluent was collected in 1-min fractions at increasing time intervals during the course of equilibration and reperfusion. The fractions were immediately put on ice until assay for lactate dehydrogenase (LDH) activity. The extent of LDH leakage during the reperfusion period, an indirect index of myocardial injury, was estimated by computing the area under the curve of the graph plotting the percent LDH activity (with respect to the mean pre-ischemic value measured during the equilibration period) against the reperfusion time (1-20 min), as described (Yim and Ko 1999). Immediately after the I-R procedure, heart ventricular tissue samples were obtained for biochemical analysis.
# [2] = test system: mitochondria of brain, heart, liver and skeletal muscle; experiment: Mitochondrial reactive oxidant species (ROS) generation in tissues of young adult and middle-aged rats; type: in vivo, rat
# Method: Young adult (8-10 week-old) and middle-aged (12-14 month-old retired breeder) female Sprague-Dawley rats were maintained under a 12-h dark/light cycle at about 22° C. and allowed food and water ad libitum. Experimental protocols were approved by the Research Practice Committee at the Hong Kong University of Science & Technology, Hong Kong. Animals were randomly divided into groups, with 5 animals in each. In the treatment groups, rats were intragastrically administered with Sch B (dissolved/suspended in olive oil) at a daily dose of 10 mg/kg for 15 days. The daily dose is approximated to 1.14 mg/kg for humans after adjusting the inter-species difference in drug distribution in the body. Untreated control animals received olive oil only. Twenty-four hours after the last dosing, animals were sacrificed by decapitation and the whole brain, heart ventricular, liver and skeletal muscle (hind limb) tissues were excised and subjected to biochemical analysis. To investigate the effect of (−) Sch B on myocardial ischemia-reperfusion […] injury, rats were intragastrically administered with (−) Sch B at a daily dose of 10 mg/kg for 35 days. Untreated control animals received olive oil only. […]
# Mitochondrial pellets were prepared from tissue homogenates by centrifugation at 800×g at 4° C. for 30 min, with purity being determined by measuring the relative specific activities of succinate dehydrogenase and lactate dehydrogenase (LDH) in the supernatant and mitochondrial pellet. […] The protein concentration of mitochondrial fractions was determined using a Bio-Rad protein assay kit.
# An aliquot (50 μl) of mitochondrial fraction (50 μg protein/ml) and 60 μl of DCFDA solution (17.5 μM in incubation buffer) were added into wells of a black micro-titer plate. […] Fluorescence intensity (excitation: 485 nm and emission: 535 nm) of the reaction mixture was monitored every 5 min for 60 min. The mitochondrial ROS generation was reflected by the fluorescence intensity of the sample after subtracting the value of a blank sample containing incubation buffer, substrate solution and DCFDA. […]
structure (smiles),measurement,setting,value
"COc1cc2c(c(OC)c1OC)-c1c(cc3c(c1OC)OCO3)CC(C)C(C)C2 (single isomer, unassigned; (-)) [(−) Sch B, (−) Schisandrin B]",Hsp 25 Level,Hsp25; 0 h post-dosing (unpretreated control),1722 ± 99 AU
same,Hsp 25 Level,Hsp25; 8 h post-dosing,1386 ± 50 AU
same,Hsp 25 Level,Hsp25; 16 h post-dosing,1432 ± 83 AU
same,Hsp 25 Level,Hsp25; 24 h post-dosing,1956 ± 113 AU
same,"Hsp 25 Level, percent increase vs unpretreated control (0 h)",Hsp25; 24 h post-dosing,(14%)
same,Hsp 25 Level,Hsp25; 48 h post-dosing,1878 ± 108 AU
same,time of maximum stimulation of Hsp25 level,Hsp25; post-dosing,24 h
same,LDH Leakage,"[1]; I-R, female, 1 mg/kg daily",2861 ± 70.6^b AU
same,"LDH Leakage, percent protection vs unpretreated control","[1]; I-R, female, 1 mg/kg daily",(31%)
same,LDH Leakage,"[1]; I-R, female, 10 mg/kg daily",2023 ± 83.1^b AU
same,"LDH Leakage, percent protection vs unpretreated control","[1]; I-R, female, 10 mg/kg daily",(60%)
same,LDH Leakage,"[1]; I-R, male, 1 mg/kg daily",3638 ± 125^a AU
same,"LDH Leakage, percent protection vs unpretreated control","[1]; I-R, male, 1 mg/kg daily",(37%)
same,LDH Leakage,"[1]; I-R, male, 10 mg/kg daily",2775 ± 55.8^a AU
same,"LDH Leakage, percent protection vs unpretreated control","[1]; I-R, male, 10 mg/kg daily",(57%)
same,LDH Leakage,"[1]; NON-I-R, female, 1 mg/kg daily",776 ± 22.1 AU
same,LDH Leakage,"[1]; NON-I-R, female, 10 mg/kg daily",813 ± 14.0 AU
same,LDH Leakage,"[1]; NON-I-R, male, 1 mg/kg daily",804 ± 18.0 AU
same,LDH Leakage,"[1]; NON-I-R, male, 10 mg/kg daily",820 ± 13.8 AU
same,decrease of mitochondrial ROS generation,"[2]; middle-aged rats, 10 mg/kg/day x 15, range among tissues",11-23%
same,difference in liver mitochondrial ROS generation between control and treated,"[2]; middle-aged rats, liver",not statistically significant
same,suppression of mitochondrial ROS generation,"[2]; young adult rats, 10 mg/kg/day x 15, range among all tissues",16-38%
